Source: patent US9938262B2, “Benzamides” (Merck Patent GmbH, priority 2011, dated 2018)
pEC50: −log10 of the molar value.

Biological target: T1, FSHR (Homo sapiens, UniProt P23945)
T1 construct: expressed in transfected cells; host or cells: CHO (Cho-FSHR-LUC-1-1-43)
Assay: EC50 of cyclic AMP production in CHO FSHR cells + EC20 FSH (Assay A)
Assay type: cell-based
Conditions: CHO FSHR cells + EC20 FSH; Table 2; read-out: Assay A EC50 of cyclic AMP production
Method in brief: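 cAMP HTRF ratio (665/620 nm) read after 1 h, 37 °C exposure of CHO-FSHR cells to compound in presence of EC20 FSH ([…]) and IBMX 200 μM. Responses given relative to FSH standard maximum; EC50 derived.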

T1 sequence (P23945 18-695): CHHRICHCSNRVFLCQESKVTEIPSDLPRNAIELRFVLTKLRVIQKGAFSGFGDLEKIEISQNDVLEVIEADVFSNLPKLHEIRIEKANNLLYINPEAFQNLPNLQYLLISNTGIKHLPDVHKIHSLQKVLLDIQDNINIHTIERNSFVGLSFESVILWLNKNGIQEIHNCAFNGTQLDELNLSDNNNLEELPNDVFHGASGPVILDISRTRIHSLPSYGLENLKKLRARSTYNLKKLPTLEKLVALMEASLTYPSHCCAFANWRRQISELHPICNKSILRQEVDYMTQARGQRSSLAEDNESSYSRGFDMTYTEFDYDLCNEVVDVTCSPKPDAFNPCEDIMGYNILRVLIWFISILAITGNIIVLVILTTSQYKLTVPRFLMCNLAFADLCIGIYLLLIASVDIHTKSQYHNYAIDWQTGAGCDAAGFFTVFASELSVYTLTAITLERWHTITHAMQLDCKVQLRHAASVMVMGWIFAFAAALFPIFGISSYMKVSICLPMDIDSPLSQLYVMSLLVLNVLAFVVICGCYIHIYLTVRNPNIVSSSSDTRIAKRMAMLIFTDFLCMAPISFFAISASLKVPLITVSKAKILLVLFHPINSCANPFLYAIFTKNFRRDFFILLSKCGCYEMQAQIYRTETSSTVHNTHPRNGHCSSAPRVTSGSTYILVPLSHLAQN
T1 sequence (P01215 25-116 partner): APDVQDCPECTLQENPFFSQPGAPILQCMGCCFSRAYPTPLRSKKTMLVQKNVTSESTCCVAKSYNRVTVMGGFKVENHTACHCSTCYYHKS
T1 sequence (P01225 19-129 partner): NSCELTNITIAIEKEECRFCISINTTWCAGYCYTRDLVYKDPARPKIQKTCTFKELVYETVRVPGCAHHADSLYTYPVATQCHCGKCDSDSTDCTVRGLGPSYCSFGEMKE

Row | SMILES | pEC50
1 | Cc1ccc(C(=O)Nc2cc(C(=O)NCCCN3CCCC3=O)ccc2N2CCN(c3ncncc3C)CC2)o1 [Compound 419] | < 5.00
2 | Cc1cncnc1N1CCN(c2ccc(C(=O)NCCCN3CCCC3=O)cc2NC(=O)c2ccco2)CC1 [Compound 420] | < 5.00
3 | Cc1ccccc1N1CCN(c2ccc(C(=O)NCCCN3CCCC3=O)cc2NC(=O)c2cncn2C)CC1 [Compound 421] | < 5.00
4 | Cc1ccccc1N1CCN(c2ccc(C(=O)NCCCN3CCCC3=O)cc2NC(=O)c2coc(CN(C)C)n2)CC1 [Compound 422] | < 5.00
5 | Cc1ccc(C(=O)Nc2cc(C(=O)NCCCN3CCCC3=O)ccc2N2CCC(N(C)c3ccccc3)CC2)o1 [Compound 423] | < 5.00
6 | CC(=O)NCCOCCOCCNC(=O)c1ccc(N2CCN(c3ccccc3C)CC2)c(NC(=O)c2coc(C3CC3)n2)c1 [Compound 424] | 6.00 to 7.00
7 | Cc1ccccc1N1CCN(c2ccc(C(=O)NCCCN3CCCC3=O)cc2NCc2cccc3cccnc23)CC1 [Compound 429] | 6.00 to 7.00
8 | Cc1cnc(CCCNC(=O)c2ccc(N3CCN(c4ccccc4C)CC3)c(NC(=O)c3coc(C4CC4)n3)c2)s1 [Compound 430] | 6.00 to 7.00
9 | O=C(NCCCN1CCCC1=O)c1ccc(N2CCN(C(=O)C3CC3)CC2)c(NC(=O)c2coc(C3CC3)n2)c1 [Compound 431] | < 5.00
10 | CC(C)C(=O)N1CCN(c2ccc(C(=O)NCCCN3CCCC3=O)cc2NC(=O)c2coc(C3CC3)n2)CC1 [Compound 432] | 5.00 to 6.00
11 | Cc1ccccc1N1CCN(c2ccc(C(=O)NCCCN3CCCC3=O)cc2NC(=O)c2coc(C3CC3)n2)CC1 [Compound 436] | 6.00 to 7.00
12 | Cc1ccccc1N1CCN(c2ccc(C(=O)NCCc3cccc(CN(C)C)c3)cc2NC(=O)c2ccco2)CC1 [Compound 437] | 6.00 to 7.00
13 | Cc1noc(CCCNC(=O)c2ccc(N3CCN(c4ccccc4C)CC3)c(NC(=O)c3coc(C4CC4)n3)c2)n1 [Compound 438] | 6.00 to 7.00
14 | Cc1cccnc1N1CCN(c2ccc(C(=O)NCCCN3CCCC3=O)cc2NC(=O)c2coc(C3CC3)n2)CC1 [Compound 439] | > 7.00
15 | Cc1ccccc1N1CCN(c2ccc(C(=O)NCCCN3CCCC3=O)cc2NC(=O)c2ncc[nH]2)CC1 [Compound 440] | 6.00 to 7.00
16 | Cc1ccccc1N1CCN(c2ccc(C(=O)NCCCNC(=O)C3CCOCC3)cc2NC(=O)c2coc(C3CC3)n2)CC1 [Compound 441] | > 7.00

Other lines, results leading:

Row | pEC50 | SMILES
17 | 6.00 to 7.00 | Cc1ccccc1N1CCN(c2ccc(C(=O)NCCCNC(=O)OC(C)(C)C)cc2NC(=O)c2coc(C3CC3)n2)CC1 [Compound 416]
18 | 5.00 to 6.00 | Cc1ccccc1N1CCN(c2ccc(C(=O)NCCCN)cc2NC(=O)c2coc(C3CC3)n2)CC1 [Compound 417]
19 | 6.00 to 7.00 | Cc1ccccc1N1CCN(c2ccc(C(=O)NCCCC(=O)N(C)C)cc2NC(=O)c2coc(C3CC3)n2)CC1 [Compound 418]
20 | 6.00 to 7.00 | Cc1ccccc1N1CCN(c2ccc(C(=O)NCCCNC(=O)NC(C)C)cc2NC(=O)c2coc(C3CC3)n2)CC1 [Compound 425]
21 | 6.00 to 7.00 | C=CCNC(=O)NCCCNC(=O)c1ccc(N2CCN(c3ccccc3C)CC2)c(NC(=O)c2coc(C3CC3)n2)c1 [Compound 426]
22 | 6.00 to 7.00 | CCCCNC(=O)NCCCNC(=O)c1ccc(N2CCN(c3ccccc3C)CC2)c(NC(=O)c2coc(C3CC3)n2)c1 [Compound 427]
23 | < 5.00 | Cc1ccccc1N1CCN(c2ccc(C(=O)NCCCNC(=O)Nc3ccc(C(F)(F)F)cc3)cc2NC(=O)c2coc(C3CC3)n2)CC1 [Compound 428]
24 | 6.00 to 7.00 | CCCNC(=O)NCCCNC(=O)c1ccc(N2CCN(c3ccccc3C)CC2)c(NC(=O)c2coc(C3CC3)n2)c1 [Compound 433]
25 | 6.00 to 7.00 | Cc1ccccc1N1CCN(c2ccc(C(=O)NCCCNC(=O)c3ccccc3)cc2NC(=O)c2coc(C3CC3)n2)CC1 [Compound 434]
26 | 6.00 to 7.00 | Cc1ccccc1N1CCN(c2ccc(C(=O)NCCCNC(=O)c3ccncc3)cc2NC(=O)c2coc(C3CC3)n2)CC1 [Compound 442]
27 | 6.00 to 7.00 | Cc1cccc(C(=O)NCCCNC(=O)c2ccc(N3CCN(c4ccccc4C)CC3)c(NC(=O)c3coc(C4CC4)n3)c2)n1 [Compound 443]
